Measured values published in patent US20260191835A1, “COMBINATIONS COMPRISING A MENIN-MLL INHIBITOR AND AT LEAST ONE OTHER THERAPEUTIC AGENT” (JANSSEN PHARMACEUTICA NV, priority 2022, published 2026).

Test system: MV4-11 cells
Assay: In vitro proliferation (Cell Titer Glo, 6 days) of Compound 51 in combination with gilteritinib, midostaurin or decitabine, MV4-11
Format: cell-based
Set-up: key to Synergy/antagonism call (maxR test), MV4-11 Cell Proliferation: synergy is indicated by “**”; antagonism is indicated by “*”; no asterisk: absence of any asterisk indicates an additive effect
Conditions: for combination effect on proliferation (cytotoxicity): 6-day CellTiter-Glo matrix
Description: 3) In Vitro Proliferation—Menin-MLL Inhibitor in Combination with FLT3 Inhibitor (Gilteritinib or Midostaurin), DNA Intercalating Agent (Idarubicin) or Hypomethylating Agent (Decitabine)
The effect of Compound 51 in combination with gilteritinib, midostaurin, idarubicin or decitabine was determined in proliferation assays.
AML cell lines MOLM-13, OCI-AML3 and MV4-11 were purchased from DSMZ. MOLM-13 were grown in RPMI medium supplemented with 10% Fetal Bovine Serum (FBS) and 1% penicillin/streptomycin. MV4-11 cells were grown in IMDM medium supplemented with 10% FBS and 1% penicillin/streptomycin. OCI-AML3 cells were cultured in 80-90% alpha-MEM (with or without ribo- and deoxyribonucleosides)+10-20% FBS. All cell lines were cultured at 37° C. in 5% CO2 atmosphere.
AML cell lines (10-20×10^3 cells/well) were seeded in 96-well plates and grown for 6 days in serum (10%)-containing medium in the presence or absence of inhibitors at the indicated concentrations. Proliferation was analyzed by means of a Cell Titer Glo assay using the […] (Promega, Madison, WI, USA), according to the manufacturer's instructions. Data are mean with standard deviation from two to four independent experiments in technical triplicates.
R-based Biochemically Intuitive Generalized Loewe (BIGL) model implemented with a highest single agent (HSA) null model. Specifically, the BIGL methodology was applied to calculate drug-drug interactions (Van der Borght, K., Tourny, A., Bagdziunas, R. et al. BIGL: Biochemically Intuitive Generalized Loewe null model for prediction of the expected combined effect compatible with partial agonism and antagonism. Sci Rep 7, 17935 (2017); Thas, O., Tourny, A., Verbist, B., Hawinkel, S., Nazarov, M., Mutambanengwe, K., & Bijnens, L. Statistical detection of synergy: New methods and a comparative study. Pharmaceutical Statistics (2021)).
Synergy matrix results of the BIGL analysis of the cell line data with HSA as mean model calculated on the basis of the cellular metabolic activity using Cell Titer-Glo assay. Bootstrap confidence intervals are indicated. Effect sizes and their confidence intervals are shown. […] No significant average effect if zero is included in the interval.

[1] = Compound 51 0.1 μm + Decitabine 0.15 μM
[2] = Compound 51 0.1 μm + Decitabine 1.5 μM

## CC(=O)N1CCC(CN2CC[C@@H](Cc3cn(-c4ccc(F)cc4C(=O)N(C)C(C)C)c4cncc(C)c34)C2)CC1 [Compound 51]
Compound 51 0.05 μm + Gilteritinib 0.3 μM
  Effect size (BIGL, HSA null model), MV4-11 Cell Proliferation: −0.02
Compound 51 0.05 μm + Gilteritinib 1 μM
  Effect size (BIGL, HSA null model), MV4-11 Cell Proliferation: −0.02
Compound 51 0.05 μm + Midostaurin 0.0012 μM
  Effect size (BIGL, HSA null model), MV4-11 Cell Proliferation: −0.02
Compound 51 0.05 μm + Midostaurin 0.006 μM
  Effect size (BIGL, HSA null model), MV4-11 Cell Proliferation: −0.07
Compound 51 0.05 μm + Midostaurin 0.025 μM
  Effect size (BIGL, HSA null model), MV4-11 Cell Proliferation: −0.14
Compound 51 0.05 μm + Midostaurin 0.05 μM
  Effect size (BIGL, HSA null model), MV4-11 Cell Proliferation: −0.13
Compound 51 0.05 μm + Midostaurin 0.1 μM
  Effect size (BIGL, HSA null model), MV4-11 Cell Proliferation: −0.04
Compound 51 0.05 μm + Midostaurin 0.5 μM
  Effect size (BIGL, HSA null model), MV4-11 Cell Proliferation: 0.03
Compound 51 0.1 μm + Decitabine 0.0015 μM
  Effect size (BIGL, HSA null model), MV4-11 Cell Proliferation: 0.01
Compound 51 0.1 μm + Decitabine 0.035 μM
  Effect size (BIGL, HSA null model), MV4-11 Cell Proliferation: −0.04
[1]
  Effect size (BIGL, HSA null model), MV4-11 Cell Proliferation: −0.09
  Synergy/antagonism call (maxR test), MV4-11 Cell Proliferation: **
[2]
  Effect size (BIGL, HSA null model), MV4-11 Cell Proliferation: −0.11
  Synergy/antagonism call (maxR test), MV4-11 Cell Proliferation: **
Compound 51 0.1 μm + Decitabine 3 μM
  Effect size (BIGL, HSA null model), MV4-11 Cell Proliferation: −0.06
Compound 51 0.1 μm + Gilteritinib 0.0005 μM
  Effect size (BIGL, HSA null model), MV4-11 Cell Proliferation: −0.07
Compound 51 0.1 μm + Gilteritinib 0.005 μM
  Effect size (BIGL, HSA null model), MV4-11 Cell Proliferation: −0.03
Compound 51 0.1 μm + Gilteritinib 0.01 μM
  Effect size (BIGL, HSA null model), MV4-11 Cell Proliferation: −0.02
Compound 51 0.1 μm + Gilteritinib 0.05 μM
  Effect size (BIGL, HSA null model), MV4-11 Cell Proliferation: −0.02
Compound 51 0.1 μm + Gilteritinib 0.3 μM
  Effect size (BIGL, HSA null model), MV4-11 Cell Proliferation: −0.02
Compound 51 0.1 μm + Gilteritinib 1 μM
  Effect size (BIGL, HSA null model), MV4-11 Cell Proliferation: −0.02
Compound 51 0.1 μm + Midostaurin 0.0012 μM
  Effect size (BIGL, HSA null model), MV4-11 Cell Proliferation: −0.03
Compound 51 0.1 μm + Midostaurin 0.006 μM
  Effect size (BIGL, HSA null model), MV4-11 Cell Proliferation: −0.06
Compound 51 0.1 μm + Midostaurin 0.025 μM
  Effect size (BIGL, HSA null model), MV4-11 Cell Proliferation: −0.08
Compound 51 0.1 μm + Midostaurin 0.05 μM
  Effect size (BIGL, HSA null model), MV4-11 Cell Proliferation: −0.09
Compound 51 0.1 μm + Midostaurin 0.1 μM
  Effect size (BIGL, HSA null model), MV4-11 Cell Proliferation: −0.04
Compound 51 0.1 μm + Midostaurin 0.5 μM
  Effect size (BIGL, HSA null model), MV4-11 Cell Proliferation: 0.03
Compound 51 0.5 μm + Decitabine 0.0015 μM
  Effect size (BIGL, HSA null model), MV4-11 Cell Proliferation: 0
Compound 51 0.5 μm + Decitabine 0.035 μM
  Effect size (BIGL, HSA null model), MV4-11 Cell Proliferation: −0.01
Compound 51 0.5 μm + Decitabine 0.15 μM
  Effect size (BIGL, HSA null model), MV4-11 Cell Proliferation: −0.02
Compound 51 0.5 μm + Gilteritinib 0.0005 μM
  Effect size (BIGL, HSA null model), MV4-11 Cell Proliferation: −0.02
Compound 51 0.5 μm + Gilteritinib 0.005 μM
  Effect size (BIGL, HSA null model), MV4-11 Cell Proliferation: −0.03
Compound 51 0.5 μm + Gilteritinib 0.01 μM
  Effect size (BIGL, HSA null model), MV4-11 Cell Proliferation: −0.02
Compound 51 0.5 μm + Gilteritinib 0.05 μM
  Effect size (BIGL, HSA null model), MV4-11 Cell Proliferation: −0.02
Compound 51 0.5 μm + Gilteritinib 0.3 μM
  Effect size (BIGL, HSA null model), MV4-11 Cell Proliferation: −0.02
Compound 51 0.5 μm + Gilteritinib 1 μM
  Effect size (BIGL, HSA null model), MV4-11 Cell Proliferation: −0.02
Compound 51 1 μm + Decitabine 0.0015 μM
  Effect size (BIGL, HSA null model), MV4-11 Cell Proliferation: 0
Compound 51 1 μm + Decitabine 0.035 μM
  Effect size (BIGL, HSA null model), MV4-11 Cell Proliferation: −0.01
Compound 51 1 μm + Decitabine 0.15 μM
  Effect size (BIGL, HSA null model), MV4-11 Cell Proliferation: −0.02
Compound 51 1 μm + Decitabine 1.5 μM
  Effect size (BIGL, HSA null model), MV4-11 Cell Proliferation: −0.03
Compound 51 1 μm + Decitabine 3 μM
  Effect size (BIGL, HSA null model), MV4-11 Cell Proliferation: −0.03
Compound 51 1 μm + Gilteritinib 0.0005 μM
  Effect size (BIGL, HSA null model), MV4-11 Cell Proliferation: −0.02
Compound 51 1 μm + Gilteritinib 0.005 μM
  Effect size (BIGL, HSA null model), MV4-11 Cell Proliferation: −0.02
Compound 51 1 μm + Gilteritinib 0.01 μM
  Effect size (BIGL, HSA null model), MV4-11 Cell Proliferation: −0.02
Compound 51 1 μm + Gilteritinib 0.05 μM
  Effect size (BIGL, HSA null model), MV4-11 Cell Proliferation: −0.02
Compound 51 1 μm + Gilteritinib 0.3 μM
  Effect size (BIGL, HSA null model), MV4-11 Cell Proliferation: −0.02
Compound 51 1 μm + Gilteritinib 1 μM
  Effect size (BIGL, HSA null model), MV4-11 Cell Proliferation: −0.02
Compound 51 1 μm + Midostaurin 0.0012 μM
  Effect size (BIGL, HSA null model), MV4-11 Cell Proliferation: 0.02
Compound 51 1 μm + Midostaurin 0.006 μM
  Effect size (BIGL, HSA null model), MV4-11 Cell Proliferation: 0.01
Compound 51 1 μm + Midostaurin 0.025 μM
  Effect size (BIGL, HSA null model), MV4-11 Cell Proliferation: 0
Compound 51 1 μm + Midostaurin 0.05 μM
  Effect size (BIGL, HSA null model), MV4-11 Cell Proliferation: 0
Compound 51 1 μm + Midostaurin 0.1 μM
  Effect size (BIGL, HSA null model), MV4-11 Cell Proliferation: 0
Compound 51 1 μm + Midostaurin 0.5 μM
  Effect size (BIGL, HSA null model), MV4-11 Cell Proliferation: 0.03
In combination with decitabine, MV4-11
  combination effect on proliferation (cytotoxicity): synergistically cytotoxic
In combination with gilteritinib 10 nM, MV4-11
  combination effect on proliferation at low doses of gilteritinib: synergistic effect
In combination with gilteritinib, MV4-11
  combination effect on proliferation (cytotoxicity): not antagonistically cytotoxic
In combination with midostaurin, MV4-11
  combination effect on proliferation (cytotoxicity): not antagonistically cytotoxic
